Columns and labels:
Acanthamoeba polyphaga [1] = experiment: Adhesion test: Acanthamoeba adhered to polypropylene test pieces after 60 min immersion; type: cell-based
Procedure: (§1) An Acanthamoeba solution containing 1×10^5 Acanthamoeba per mL of solution was prepared by dispersing Acanthamoeba (Acanthamoeba polyphaga, obtained from American Type Culture Collection (ATCC), 30872™) in phosphate-buffered saline as solvent.
(§2) The polypropylene test pieces used in the adhesion test described below were polypropylene from Johoku Co., Ltd., product number: PP_A3, cut to dimensions of 15 mm length×15 mm width×0.25 mm thickness from original dimensions of 320 mm length×440 mm width×0.25 mm thickness for each experiment.
(§3) To verify the anti-adhesive properties and antiprotozoal activity of the lysozyme-chitosan complex (LYZOX (registered trademark)), adhesion tests and cell death tests were conducted.
(§4) Specifically, the above-mentioned Acanthamoeba solution was added to the above-mentioned lysozyme-chitosan complex (LYZOX (registered trademark)) solution to prepare mixed solutions containing 0.1 μg, 1 μg, 10 μg, 100 μg, and 1000 μg of lysozyme-chitosan complex per 1 mL of mixed solution. Separately, a control solution with 0 μg/mL concentration containing no lysozyme-chitosan complex was prepared. The same sterilized water used in preparing the lysozyme-chitosan complex was used as dilution liquid for concentration adjustment. All six solutions contained 1×10^5 Acanthamoeba per 1 mL of solution.
(§5) The above-mentioned polypropylene test pieces were immersed in the prepared mixed solutions and left standing; after 60 minutes of immersion, the test pieces were removed from the mixed solutions, washed with phosphate-buffered saline (PBS, obtained from FUJIFILM Wako Pure Chemical Corporation, product number: 166-23555), and dried. The surface of the obtained test pieces was observed under a biological microscope (obtained from Nikon, product number: ECLIPSE E-200), and Acanthamoeba adhered within a 5×5 mm observation area on the test piece surface were counted. Subsequently, trypan blue was applied to the observation area, staining dead Acanthamoeba, and the number of dead Acanthamoeba was counted.
(§6) Acanthamoeba were counted and the total number of adhered Acanthamoeba, number of dead Acanthamoeba, and Acanthamoeba mortality rate were measured in the same manner as Experimental Example 1, except that the mixture solution of lysozyme and chitosan (Table 2), lysozyme alone (Table 3), and chitosan alone (Table 4) described above were used instead of the lysozyme-chitosan complex (LYZOX (registered trademark)) solution of Experimental Example 1.

Acanthamoeba polyphaga [2] = experiment: Cell death test: trypan blue staining of adhered Acanthamoeba; type: cell-based; conditions: for Acanthamoeba inhibition effects (antiprotozoal effects): in words, compared with complex at 100 μg/mL and 1000 μg/mL; for Acanthamoeba mortality rate: 60 min immersion, 1×10^5 Acanthamoeba/mL
Procedure: as §1, §2, §3, §4, §5, §6

Lysozyme: egg white lysozyme with molecular weight of approximately 14300 (Biocon (Japan) Ltd.)
Total number of adhered Acanthamoeba (Acanthamoeba polyphaga [1]; 0.05 μg/mL, 1×10^5 Acanthamoeba/mL): 119 count/mm^2
Total number of adhered Acanthamoeba (Acanthamoeba polyphaga [1]; 0.5 μg/mL, 1×10^5 Acanthamoeba/mL): 94.2 count/mm^2
Total number of adhered Acanthamoeba (Acanthamoeba polyphaga [1]; 5 μg/mL, 1×10^5 Acanthamoeba/mL): 87.2 count/mm^2
Total number of adhered Acanthamoeba (Acanthamoeba polyphaga [1]; 50 μg/mL, 1×10^5 Acanthamoeba/mL): 67.8 count/mm^2
Total number of adhered Acanthamoeba (Acanthamoeba polyphaga [1]; 500 μg/mL, 1×10^5 Acanthamoeba/mL): 42.1 count/mm^2
Acanthamoeba inhibition effects (antiprotozoal effects) (Acanthamoeba polyphaga [2]): incomplete

poly-β1→4-glucosamine [Chitosan]
Total number of adhered Acanthamoeba (Acanthamoeba polyphaga [1]; 0.05 μg/mL, 1×10^5 Acanthamoeba/mL (Table 4)): 108 count/mm2
Total number of adhered Acanthamoeba (Acanthamoeba polyphaga [1]; 0.5 μg/mL, 1×10^5 Acanthamoeba/mL (Table 4)): 89.2 count/mm2
Total number of adhered Acanthamoeba (Acanthamoeba polyphaga [1]; 5 μg/mL, 1×10^5 Acanthamoeba/mL (Table 4)): 82.1 count/mm2
Total number of adhered Acanthamoeba (Acanthamoeba polyphaga [1]; 50 μg/mL, 1×10^5 Acanthamoeba/mL (Table 4)): 65.3 count/mm2
Total number of adhered Acanthamoeba (Acanthamoeba polyphaga [1]; 500 μg/mL, 1×10^5 Acanthamoeba/mL (Table 4)): 49.7 count/mm2
Acanthamoeba mortality rate (Acanthamoeba polyphaga [2]; 0.05 μg/mL): 3.5%
Acanthamoeba mortality rate (Acanthamoeba polyphaga [2]; 0.5 μg/mL): 3.8%
Acanthamoeba mortality rate (Acanthamoeba polyphaga [2]; 5 μg/mL): 3.9%
Acanthamoeba mortality rate (Acanthamoeba polyphaga [2]; 50 μg/mL): 7.9%
Acanthamoeba mortality rate (Acanthamoeba polyphaga [2]; 500 μg/mL): 37.4%
Acanthamoeba inhibition effects (antiprotozoal effects) (Acanthamoeba polyphaga [2]): incomplete

From US20260027214A1, “PHARMACEUTICAL COMPOSITION FOR TREATING OR PREVENTING INFLAMMATION CAUSED BY ACANTHAMOEBA” (priority 2022, published 2026)
